Assay [1] deals with stress-induced gastric ulcers. Put plainly: Inhibition of stress-induced gastric ulcers in rats (Takagi-Okabe method). The format is in vivo, rat. The following applies: anti-ulcer; for ED50: Rattus norvegicus, read-out: ED50 (Fiducial Limits For P=0.05); for Potency Ratio (Fiducial Limits For P=0.05): PGE2 = 1 (conventional value). The source says:
(§1) Moreover, the compounds of the present invention are endowed with an excellent anti-ulcer activity as well as with a strong gastric anti-secretory effect, as shown by the following Tables: where the conventional value of 1 is given to the anti-ulcer and anti-secretory activity of PGE2, and where the compounds of the invention are compared also with 13,14-dehydro-PGE2, 16S-methyl-PGE2 and 16(S,R)-methyl-13,14-dehydro-PGE2.
INHIBITION OF STRESS-INDUCED GASTRIC ULCERS IN RATS (*)
(*) The ulcers are induced according to the method of Takagi-Okabe (K.
Takagi et al., Jap. J. Pharmacol., 18, 9 (1968)

For the next assay, the system named is gastric secretion. In words: Antisecretory activity in rats (Shay method). The format is in vivo, rat. To be noted: subcutaneously; for ED50: Rattus norvegicus, sc, read-out: ED50 (Fiducial Limits For P = 0.05); for Potency Ratio (Fiducial Limits For P=0.05): PGE2 = 1 (conventional value).
Source text: as §1
ANTISECRETORY ACTIVITY IN RATS (*)
(*) The antisecretory activity was studied according to H. Shay et al.,

For assay [2], the system named is bronchospasm in guinea-pigs. In words: Anti-bronchospastic (anti-asthmatic) activity in guinea-pigs (histamine- and anaphylactic shock-induced bronchospasm). More on the design: species or system guinea pig. To be noted: in vivo and in vitro in guinea-pigs; for anti-bronchospastic activity: compared with natural PGE2; for anti-bronchospastic activity relative to natural PGE2: histamine- and anaphylactic shock-induced. How it is done: Four hours later, the same animals were treated with a spray of the test compounds at different solutions in saline, and with a spray of standard PGE2 solution. They were then given another histamine spray (0.2%) and again, the times taken for bronchospasm to appear were noted.

For the next assay, the system named is uterus of rats. Put plainly: Rat uterus test in vitro (oestrogenized rat uteri). How it is done:
The rat uterus test consisted of a 10 ml thermostatic bath held at 29° C., in which oestrogenized rat uteri under 0.5 g traction were carboxygenated in a Dejalon saline solution. The preparation was left to stabilize for 30 minutes before the compounds and the standard were tested. Response was measured using a isotonic frontal lever, long enough to amplify the response 4.5 times.

A further assay relates to stomach of rats. Put plainly: Activity in vitro in the stomach of rats. To be noted: rat stomach.
A further assay has as its system ileum of guinea-pigs. In words: Guinea pig ileum test in vitro. Here is the method: The guinea pig ileum test consisted of a 10 ml thermostatic bath held at 35° C., containing the ileum of a male guinea pig, under 0.5 g traction, carboxygenated in a Tyrode solution; this was left for 30 minutes to stabilize before the compounds were tested. The response was recorded using a isotonic frontal lever, long enough to amplify the response 4.5 times.

Like-named read-outs stand apart in the source and are kept apart here.

As a reminder, the ED50 is the midpoint of the dose-response relation.

As for `CCCC[C@H](C)[C@H](O)/C=C/[C@H]1[C@H](O)CC(=O)[C@@H]1C/C=C\CCCC(=O)O` [16S-methyl-PGE2, reference compound], the ED50 in assay [1] (po, os) was 0.0242 mg/kg; in assay [1] (sc, subcutaneously) it was 0.0177 mg/kg; with gastric secretion it was 0.0112 mg/kg. Moreover, the “Potency Ratio (Fiducial Limits For P=0.05)” value is recorded as 39.0(18.9-80.3) in assay [1] (os), 12.8(9.0-17.9) in assay [1] (subcutaneously) and 13.5 (7.9-23.7) in the assay on gastric secretion.
For `CCCC[C@@H](C)[C@H](O)C#C[C@H]1[C@H](O)CC(=O)[C@@H]1C/C=C\CCCC(=O)O` [16R-methyl-13,14-dehydro-PGE2, 16r-methyl-5c-9-oxo-11α,15S-dihydroxy-prost-5-en-13-ynoic acid], the anti-bronchospastic activity result in assay [2] was “very good anti-bronchospastic activity”. Also, the “anti-bronchospastic activity relative to natural PGE2” value in assay [2] was “four to six”. Besides, the ED50 was 0.0098 mg/kg in assay [1] (po, os); 0.0015 mg/kg in assay [1] (sc, subcutaneously); 0.0026 mg/kg in the assay with gastric secretion. Also, the “Potency Ratio (Fiducial Limits For P=0.05)” value in assay [1] (os) was 105.6(46.6-282.6); in assay [1] (subcutaneously) it was 43.1(28.4-64.6); in the assay on gastric secretion, 48.3 (33.5-71.6).
Take `CCCCC[C@H](O)/C=C/[C@H]1[C@H](O)CC(=O)[C@@H]1C/C=C\CCCC(=O)O` [PGE2, reference compound]: the ED50 in assay [1] (po, os) was 0.717 mg/kg; in assay [1] (sc, subcutaneously), 0.119 mg/kg; in the assay on gastric secretion, 0.155 mg/kg.
`CCCC[C@H](C)[C@@H](O)C#C[C@H]1[C@H](O)CC(=O)[C@@H]1C/C=C\CCCC(=O)O` [16S-methyl-13,14-dehydro-15-epi-PGE2, 16s-methyl-5c-9-oxo-11α,15R-dihydroxy-prost-5-en-13-ynoic acid]: the ED50 in assay [1] (po, os) was determined as 0.22 mg/kg; in assay [1] (sc, subcutaneously), 0.0911 mg/kg. The “Potency Ratio (Fiducial Limits For P=0.05)” value in assay [1] (os) is on record as 3.8(1.75-8.4); in assay [1] (subcutaneously), 2.9(1.9-4.5).
In the case of `CCCC[C@H](C)[C@H](O)C#C[C@H]1[C@H](O)CC(=O)[C@@H]1C/C=C\CCCC(=O)O` [16S-methyl-13,14-dehydro-PGE2, 16S-methyl-5c-9-oxo-11α,15S-dihydroxy-prost-5-en-13-ynoic acid], the anti-bronchospastic activity result in assay [2] is reported as “very good anti-bronchospastic activity”. Further, the “anti-bronchospastic activity relative to natural PGE2” value in assay [2] is recorded as “four to six”. In addition, the ED50 came out at 0.015 mg/kg in assay [1] (po, os); 0.0009 mg/kg in assay [1] (sc, subcutaneously); 0.0042 mg/kg in the assay with gastric secretion. Further, the results for the “Potency Ratio (Fiducial Limits For P=0.05)” value (in assay [1] (os); in assay [1] (subcutaneously); in the assay on gastric secretion) were 42.8(18.8-101.7), 69.8(46.4-105.2) and 35.7 (20.8-68.9), respectively.
For `CCCCC(C)[C@H](O)C#C[C@H]1[C@H](O)CC(=O)[C@@H]1C/C=C\CCCC(=O)O` (stereo partly drawn) [16(S,R)-methyl-13,14-dehydro-PGE2, reference compound], the ED50 stood at 0.0202 mg/kg in assay [1] (po, os); 0.00341 mg/kg in assay [1] (sc, subcutaneously); 0.0068 mg/kg with gastric secretion. For the same molecule, the “Potency Ratio (Fiducial Limits For P=0.05)” value is reported as 39.8(17.1-102.1) in assay [1] (os), 30.8(20.4-44.2) in assay [1] (subcutaneously) and 28.2 (18.1-41.6) in the assay on gastric secretion.
Regarding `CCCCC[C@H](O)C#C[C@H]1[C@H](O)CC(=O)[C@@H]1C/C=C\CCCC(=O)O` [13,14-dehydro-PGE2, reference compound], the ED50 in assay [1] (po, os) worked out at 0.063 mg/kg; in assay [1] (sc, subcutaneously) it was 0.043 mg/kg; in the assay on gastric secretion, 0.055 mg/kg. Also, the “Potency Ratio (Fiducial Limits For P=0.05)” value in assay [1] (os) is recorded as 9.3(4.5-19.0); in assay [1] (subcutaneously) it was 4.9(2.4-9.6); in the assay on gastric secretion, 2.6 (1.4-4.5).
With `CCCC[C@H](C)[C@H](O)C#C[C@@H]1[C@H](O)CC(=O)[C@H]1C/C=C\CCCC(=O)O` (single isomer, unassigned) [16s-methyl-5c-9-oxo-11α,15S-trihydroxy-8,12-diiso-prost-5-en-13-ynoicacid], in the assay on uterus of rats, the spasmogenic activity result is “excellent spasmogenic activity”. The “activity in vitro in the stomach of rats” value in the assay on stomach of rats is listed as “practically devoid of any activity”. Further, the “activity in vitro in the ileum of guinea-pigs” value in the assay on ileum of guinea-pigs is “practically devoid of any activity”.
With `CCCC[C@@H](C)[C@@H](O)C#C[C@H]1[C@H](O)CC(=O)[C@@H]1C/C=C\CCCC(=O)O` [16R-methyl-13,14-dehydro-15-epi-PGE2, 16r-methyl-5c-9-oxo-11α,15R-dihydroxy-prost-5-en-13-ynoic acid], the ED50 was found to be 0.141 mg/kg in assay [1] (po, os); 0.0087 mg/kg in assay [1] (sc, subcutaneously); 0.0328 mg/kg with gastric secretion. The “Potency Ratio (Fiducial Limits For P=0.05)” value is recorded as 7.3(3.1-16.9) in assay [1] (os), 7.4(4.8-11.1) in assay [1] (subcutaneously) and 3.8 (2.7-5.5) in the assay on gastric secretion.

For the origin of these results see patent US4041064A, “16-Methyl prost-5-en-13-ynoic acid derivatives” (Carlo-Erba S.p.A., priority 1974, dated 1977).
